Measured values as given in article PMC9786170, “The Pharmacological Potential of Novel Melittin Variants from the Honeybee and Solitary Bees against Inflammation and Cancer” (Toxins, 2022).

Tested on: MDA-MB-231 cells
Assay: Apoptosis of MDA-MB-231 cells (propidium iodide, flow cytometry)
Format: cell-based, human
Settings: MDA-MB-231, 25 µg/mL, 24 h, 48 h and 72 h, PI, n = 2
Protocol: Figure 5 Anti-proliferative and apoptotic effect of melittin derivates on the triple-negative breast cancer cell line MDA-MB-231. (A) For the proliferation assay, cells were grown in low density and were treated after 24 h with melittin peptides at a concentration of 25 µg/mL for 72 h. Cells were stained with crystal violet solution. The amount of DNA-bound crystal violet was detected by absorbance measurements. (B) Melt3, 4, and Xac4, which are non-toxic to healthy cells, were further used to test effects on proliferation at 24 h (left) and 48 h (right) at different concentrations. (C) The effects on apoptosis were detected by flow cytometry after 24 h (left), 48 h (middle), and 72 h (right) of treatment. The number of apoptotic cells was determined by staining with propidium iodide (PI). Data are expressed as mean ± SEM. n = 2, * p ≤ 0.05 versus control. Sts, staurosporin 1 µM.
Apoptosis of primary HUVECs was detected according to the method of Nicoletti et al.. […] The percentage of cells with sub-diploidic DNA content was measured using a FACSVerse flow cytometer (BD Biosciences, Heidelberg, Germany).

In the case of xylopin [Xac4], the “apoptosis / cancer cell death” value is reported as “trend of decreased proliferation and increased apoptosis”.
